Experimental data: patent publication US20250009614A1 (priority 2021, published 2025)

B1: cyanovirin-N (protein, UniProt P81180 1-101, looked up)
Cyanovirin-N: LGKFSQTCYNSAIQGSVLTSTCERTNGGYNTSSIDLNSVIENVDGSLKWQPSNFIETCRNTQLAGSSELAAECKTRAQQFVSTKINLDDHIANIDGTLKYE

Key:
human skin = assay: Skin irritancy patch test; assay type: in vivo; conditions: occluded patch, neat
Description: The objective of the study was to determine skin irritancy potential of the nanoemulsion hand sanitizer products of the invention. The study was conducted according to internationally recognized Good Clinical Practice Guidelines. Permission to conduct the study was covered under the protocol approval for project MREC/H/48/2014: CR of the Research, Ethics and Publications Committee of the Sefako Makgatho Health Sciences University. Recruitment for the study began two weeks before the commencement of the study and approximately 25 panellists were recruited according to the study requirements, to commence the study with a test panel of 20. Potential panellists attended a series of study briefings held during the week prior to the study. Panellists were verbally briefed and given the Study Instructions, Informed Consent forms (plus coloured duplicate copies of the latter).
Panellists were given specifically timed appointments for the whole study. Unless otherwise stated in the summary, twenty adult female volunteers were used, of whom five had sensitive skins (as determined from the subject enrolment questionnaire). Signed consent forms were obtained from all subjects. Subjects with a history of clinical dermal abnormalities or who are taking or using medication which may affect test results through mediation of the inflammatory response were excluded. […]
Briefly, the study procedure was as follows; Controls and products were applied to the inner forearm of each volunteer in a randomized, blinded pattern at zero hours and repeated on the same position at 24 hours. A measured volume of control or pieces of product was placed in the respective chamber and the chamber attached to the forearm. […]
The protocol uses 1% sodium lauryl sulphate (SLS) solution as a positive control and de-ionized water as a negative control. A measured amount of 0.02 ml of sodium lauryl sulphate and de-ionized water was applied. […]
The maximum irritancy (as calculated by the mean visual score+one standard deviation of the visual score) for the products and the controls is tabulated below. […]

A549 cells = assay: In-vitro cytotoxicity, MTT assay; conditions: 24 hours
HIV-1 pseudovirus = conditions: infection of 100 TCID50; cited from earlier work

Molecule	Maximum value (mean visual score + sd) (human skin; 0-3 scale, 20 panellists)	Conclusion (irritancy category) (human skin)	Time point (hours) of maximum value (human skin) [h]	cytotoxicity (in words) (A549 cells)	reported IC50 (as mass) (HIV-1 pseudovirus) [µg]
CCCCCCCCCCCCOS(=O)(=O)[O-].[Na+] [H, Sodium Lauryl Sulphate]	2.18	Irritant (product mean visual score+SD >1.5—Product is irritant)	72	–	–
C=C(C)[C@@H]1CCC(C)=C[C@H]1c1c(O)cc(CCCCC)cc1O [CBD, cannabidiol]	–	–	–	significant toxicity	–
B1	–	–	–	significant toxicity	22 to 340
